Assay [1] has as its target T1, human NLRP3 (Homo sapiens, UniProt Q96P20). Nature of the assay: Human PBMC NLRP3 Assay (LPS priming, ATP stimulation, cytokine measurement). The class given is cell-based. Also on record: host or cells: human PBMCs (A2); human whole blood from healthy volunteers (A3). As to conditions: human PBMC, LPS + ATP. As for the experimental part: Reagents: Human PBMCs (Normal): iXCells Cat #10HU-003; RPMI 1640 medium with GlutaMAX: ThermoFisher Cat #61870127 (Complete Media: 4.5 g/L D-glucose, 10% FBS, 100 mM NaPyr, 1% Pen/Strep, 10 mM HEPES and 0.05 mM of ®-mercaptoethanol; Assay Media: 4.5 g/L D-glucose, 100 mM NaPyr, 1% Pen/Strep, 10 mM HEPES and 0.05 mM of mercaptoethanol; 96-well V-bottom Plates: Costar Cat #3894; LPS (E. coli O26:B6): Sigma Cat #L2654, stock 5 mg/mL in PBS; ATP: Sigma Cat #A6419, prepared in a 250 mM stock in 1 M HEPES (adjusted to pH 7.4).
Cryopreserved PBMCs were rapidly thawed in a 37° C. water bath for 2 min. Cells were then centrifuged at 1200 RPM for 5 min and resuspended in ˜50 mL of fresh RPMI 1640 Complete Medium. A count was undertaken using a hemocytometer and adjusted to 2.5×10^5 cells/mL. V-shaped 96-well plates were seeded with 200 μL of PBMCs (5×10^4) per well and subsequently incubated overnight at 37° C. with 5% CO2. Assay Media was then prepared containing 100 ng/ml of LPS. PBMCs were then centrifuged at 1,200 RPM for 5 min, serum containing media was aspirated, and 150 μL/well of Assay Media+LPS was immediately added. Assay Media without LPS was added in the untreated control wells. Cells were then primed with LPS for 4 h at 37° C. with 5% CO2. A concentration response curve (CRC) was prepared of 1000× test compound in 100% DMSO. The CRC was then diluted 1:50 in Assay Media and then further diluted by 1:5× in Assay Media resulting in a final 4×CRC in 0.4% DMSO/Assay Media. 50 μL/well of 4× test compound CRC or vehicle (0.4% DMSO/Assay Media) was then transferred into each well and subsequently incubated for 30 min at 37° C. with 5% CO2. Cells were stimulated by adding 4 μL of 250 mM ATP, using a 250 mM stock prepared in 1 M Hepes without further dilution (for a final concentration of 5 mM), for 1 h at 37° C. with 5% CO2 Plates were then centrifuged at 1200 RPM for 5 min; and 50 μl of the media was transferred to a clean 96-well storage plate for cytokine measurements using the mesoscale platform, and stored at −80° C. until analyzed. Compounds were added 30 minutes before priming the cells with LPS when TNFα was required to be quantified in the cytokine panel to confirm selectivity.
PBMC NLRP3 IC50 assay results, as a measurement of cellular potency, are provided in Table B. “A” activity=<0.01 uM; “B” activity=0.01-0.1 uM; “C” activity=>0.1-0.5 uM; “D” activity=>0.5 uM.

Assay [2] concerns the target T1, human NLRP3. The assay is described as follows: Scintillation Proximity (SPA) NLRP3 Assay, displacement of 3H-MCC950. It is filed as binding. As to conditions: displacement of 3H-MCC950 from human NLRP3. In a few lines: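 Displacement of radioligand 3H-MCC950 (125 nM final) from 350 nM human NLRP3, read by scintillation proximity after 6 h equilibration with PVT beads. Buffer: 20 mM HEPES pH 7.5, 150 mM NaCl, 5 mM MgCl2, 100 μM ADP; compound preincubated 15 min, ligand 60 min, RT. IC50 from specific binding.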
Background: In a scintillation proximity assay essentially only radioactivity close to the scintillant gives light.

The source of these data is patent US20260008768A1, “UREA DERIVATIVES FOR INHIBITING NLRP3 AND USES THEREOF” (VENTUS THERAPEUTICS U.S., INC., priority 2023, published 2026).

Some results are limits rather than exact numbers.

T1 sequence (Q96P20 whole entry): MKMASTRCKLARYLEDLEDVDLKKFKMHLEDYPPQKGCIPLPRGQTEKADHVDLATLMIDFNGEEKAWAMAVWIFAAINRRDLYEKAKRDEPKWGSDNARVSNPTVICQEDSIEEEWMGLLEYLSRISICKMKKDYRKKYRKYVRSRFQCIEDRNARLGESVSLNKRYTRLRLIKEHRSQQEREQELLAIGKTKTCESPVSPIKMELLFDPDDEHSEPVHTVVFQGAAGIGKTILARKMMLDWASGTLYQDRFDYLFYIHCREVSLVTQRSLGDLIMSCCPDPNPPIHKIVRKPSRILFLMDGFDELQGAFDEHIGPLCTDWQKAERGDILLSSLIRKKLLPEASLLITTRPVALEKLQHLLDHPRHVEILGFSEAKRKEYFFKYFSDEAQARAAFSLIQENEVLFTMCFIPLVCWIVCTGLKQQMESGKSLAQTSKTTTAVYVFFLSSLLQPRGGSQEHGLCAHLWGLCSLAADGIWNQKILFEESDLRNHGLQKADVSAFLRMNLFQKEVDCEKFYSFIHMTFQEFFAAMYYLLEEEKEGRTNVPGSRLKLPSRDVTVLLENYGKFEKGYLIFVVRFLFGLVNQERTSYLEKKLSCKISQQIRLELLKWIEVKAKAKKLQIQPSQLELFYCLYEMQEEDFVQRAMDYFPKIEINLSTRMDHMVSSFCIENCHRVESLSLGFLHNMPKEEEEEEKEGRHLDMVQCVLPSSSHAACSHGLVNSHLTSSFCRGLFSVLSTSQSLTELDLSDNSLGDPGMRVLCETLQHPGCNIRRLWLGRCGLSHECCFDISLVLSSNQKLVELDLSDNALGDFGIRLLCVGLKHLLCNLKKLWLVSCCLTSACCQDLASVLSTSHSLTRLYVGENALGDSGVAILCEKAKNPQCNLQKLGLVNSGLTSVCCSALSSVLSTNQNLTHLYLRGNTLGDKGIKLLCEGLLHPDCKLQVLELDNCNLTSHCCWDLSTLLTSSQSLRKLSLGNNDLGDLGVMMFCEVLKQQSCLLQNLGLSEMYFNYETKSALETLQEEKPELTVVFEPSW

`CN(C(=O)N[C@@H]1CCCN(c2ccccc2)C1)c1ccc(Cl)cc1` [Comparative Example D1, (R)-1-(4-chlorophenyl)-1-methy1-3-(1-phenylpiperidin-3-yl)urea, reference compound]: the IC50 at human NLRP3 [1] (Table C) is 39.1 µM.
Regarding `CN(C(=O)N[C@@H]1CCN(c2nnn[nH]2)C1)c1ccc(Cl)cc1` (single isomer, unassigned) [Comparative Example A*, reference compound], the half-inhibitory concentration (IC50) on human NLRP3 [1] (Table C) is above 100 µM.
Regarding `C[C@@H]1CCN(c2nnn[nH]2)C[C@H](NC(=O)N(C)c2ccc(C3CC3)cc2)C1` (single isomer, unassigned) [8A*], the IC50 is below 1 µM at human NLRP3 [2] (Table B, activity class) and below 0.01 µM on human NLRP3 [1] (Table B, activity class).
Regarding `O=C(Nc1ccc(Cl)cc1)Nc1cccc(-c2nnn[nH]2)c1` [Comparative Example B1, 1-(3-(1H-tetrazol-5-yl)phenyl)-3-(4-chlorophenyl)urea, reference compound], the concentration for half-maximal inhibition (IC50) on human NLRP3 [2] (Table C) is 190 µM; on human NLRP3 [1] (Table C) it was above 5 µM.
For the compound `O=C(N[C@@H]1CCCN(c2ccccc2)C1)c1ccc(Cl)cc1` [Comparative Example J1, (R)-4-chloro-N-(1-phenylpiperidin-3-yl)benzamide, reference compound], the IC50 at human NLRP3 [1] (Table C) is above 100 µM.
Same read-out and setting: to `O=C(N[C@@H]1CCCN(c2nnn[nH]2)C1)c1ccc(Cl)cc1` [Comparative Example G, (R)-N-(1-(1H-tetrazol-5-yl)piperidin-3-yl)-4-chlorobenzamide, reference compound] belongs above 100 µM.
Take `CN(C(=O)N[C@@H]1CCCN(c2nnn[nH]2)C1)c1ccc(Cl)cc1F` [Compound 66, (R)-3-(1-(1H-tetrazol-5-yl)piperidin-3-yl)-1-(4-chloro-2-fluorophenyl)-1-methylurea]: the half-maximal inhibitory concentration (IC50) at human NLRP3 [1] (Table B, activity class) was above 0.5 µM; on human NLRP3 [1] (Table C) it was 0.892 µM.
`CN(C(=O)N[C@@H]1CCCN(c2nnnn2C)C1)c1ccc(Cl)cc1` [Comparative Example F, (R)-1-(4-chlorophenyl)-1-methyl-3-(1-(1-methy1-1H-tetrazol-5-yl)piperidin-3-yl)urea, reference compound]: on human NLRP3 [1] (Table C), the IC50 stood at 15.5 µM.
As for `CN(C(=O)N[C@H]1CCCN(c2ccccc2)C1)c1ccc(Cl)cc1` [Comparative Example D2, (S)-1-(4-chlorophenyl)-1-methyl-3-(1-phenylpiperidin-3-yl)urea, reference compound], the IC50 at human NLRP3 [1] (Table C) was above 100 µM.
`O=C(N[C@H]1CCCN(c2ccccc2)C1)c1ccc(Cl)cc1` [Comparative Example J2, (S)-4-chloro-N-(1-phenylpiperidin-3-yl)benzamide, reference compound]: the IC50 at human NLRP3 [1] (Table C) is above 100 µM.
With `CN(C(=O)N(C)[C@@H]1CCCN(c2nnn[nH]2)C1)c1ccc(Cl)cc1` [Comparative Example C2, (R)-1-(1-(1H-tetrazol-5-yl)piperidin-3-yl)-3-(4-chlorophenyl)-1,3-dimethylurea, reference compound], on human NLRP3 [1] (Table C), the IC50 is 58.1 µM.
For the compound `C[C@H]1CCN(c2nnn[nH]2)C[C@@H](NC(=O)N(C)c2ccc(Cl)cc2Cl)C1` (single isomer, unassigned) [7D*], the IC50 at human NLRP3 [2] (Table B, activity class) was in the range of 10 to 50 µM.
With `C[C@@H]1C[C@H](NC(=O)N(C)c2ccc(OC(F)F)c(F)c2F)[C@H]2CC[C@@H]1N2c1nnn[nH]1` (single isomer, unassigned) [58B*], the IC50 at human NLRP3 [2] (Table B, activity class) is above 100 µM.
As for `O=C(N[C@@H]1CCCN(c2nnn[nH]2)C1)N(c1ccc(Cl)cc1)C1CC1` [Compound 3A, (R)-3-(1-(1H-tetrazol-5-yl)piperidin-3-yl)-1-(4-chlorophenyl)-1-cyclopropylurea], on human NLRP3 [2] (Table B, activity class), the half-inhibitory concentration (IC50) is above 100 µM.
For the compound `C[C@H]1CCN(c2nnn[nH]2)C[C@H](NC(=O)N(CC2CC2)c2ccc(OC(F)(F)F)cc2)C1` (single isomer, unassigned) [44C*], the IC50 at human NLRP3 [2] (Table B, activity class) was 10 to 50 µM.
Turning to `C[C@H]1CCN(c2nnn[nH]2)C[C@H](NC(=O)N(C)c2ccc(OC(F)F)cc2F)C1` (single isomer, unassigned) [17C*], the 50% inhibitory concentration (IC50) at human NLRP3 [2] (Table B, activity class) was in the range of 1 to 10 µM.
Consider `C[C@H]1C[C@H](NC(=O)N(C)c2ccc(C(F)F)c(F)c2)[C@@H]2CC[C@H]1N2c1nnn[nH]1` (single isomer, unassigned) [53D*], for which, at human NLRP3 [2] (Table B, activity class), the IC50 is above 100 µM.
With `C[C@@H]1C[C@H](NC(=O)N(C)c2ccc(OC(F)F)c(F)c2)[C@H]2CC[C@@H]1N2c1nnn[nH]1` (single isomer, unassigned) [52B*], the half-inhibitory concentration (IC50) on human NLRP3 [2] (Table B, activity class) was above 100 µM.
Consider `C[C@@H]1CCN(c2nnn[nH]2)C[C@@H](NC(=O)N(C)c2ccc(Cl)nc2)C1` (single isomer, unassigned) [29B*], for which, at human NLRP3 [2] (Table B, activity class), the IC50 was in the range of 1 to 10 µM.
In turn, `C[C@H]1C[C@@H](NC(=O)N(C)c2ccc(C(F)(F)F)c(F)c2F)[C@@H]2CC[C@H]1N2c1nnn[nH]1` (single isomer, unassigned) [47C*] returned a concentration for half-maximal inhibition (IC50) at human NLRP3 [2] (Table B, activity class) above 100 µM.
On the same count and under the same terms, to `C[C@H]1C[C@H](NC(=O)N(C)c2ccc(OC(F)(F)F)c(F)c2)[C@@H]2CC[C@H]1N2c1nnn[nH]1` (single isomer, unassigned) [51D*] belongs 10 to 50 µM.
In turn, `C[C@@H]1CCN(c2nnn[nH]2)C[C@@H](NC(=O)N(C)c2ccc(C(F)F)cc2F)C1` (single isomer, unassigned) [18B*] displayed an IC50 at human NLRP3 [2] (Table B, activity class) of 1 to 10 µM.
`C[C@H]1CCN(c2nnn[nH]2)C[C@@H](NC(=O)N(CC2CC2)c2ccc(OC(F)(F)F)cc2)C1` (single isomer, unassigned) [44D*] registered a concentration for half-maximal inhibition (IC50) at human NLRP3 [2] (Table B, activity class) of 1 to 10 µM.
Regarding `CCN(C(=O)N[C@H]1C[C@H](C)CCN(c2nnn[nH]2)C1)c1ccc(OC(F)(F)F)cc1` (single isomer, unassigned) [43B*], the IC50 at human NLRP3 [2] (Table B, activity class) is below 1 µM.
In the case of `C[C@@H]1CCN(c2nnn[nH]2)C[C@H](NC(=O)N(C)c2cnc(C(F)(F)F)nc2)C1` (single isomer, unassigned) [31A*], the IC50 at human NLRP3 [2] (Table B, activity class) was in the range of 10 to 50 µM.
Regarding `C[C@H]1CCN(c2nnn[nH]2)C[C@H](NC(=O)N(C)c2ccc(Cl)cc2)C1` (single isomer, unassigned) [4C*], the IC50 at human NLRP3 [2] (Table B, activity class) fell in the range of 50 to 100 µM.
The same measure, in the same setting: to `C[C@H]1CCN(c2nnn[nH]2)C[C@H](NC(=O)N(C)c2ccc(OC(F)(F)F)c(F)c2F)C1` (single isomer, unassigned) [26C*] belongs above 100 µM; to `C[C@@H]1CCN(c2nnn[nH]2)C[C@@H](NC(=O)N(C)c2ccc(Cl)cc2Cl)C1` (single isomer, unassigned) [7B*], 1 to 10 µM; to `C[C@H]1C[C@H](NC(=O)N(C)c2ccc(C3CC3)c(F)c2)[C@@H]2CC[C@H]1N2c1nnn[nH]1` (single isomer, unassigned) [54D*], 10 to 50 µM.
`C[C@H]1C[C@H](NC(=O)N(C)c2ccc(C(F)(F)F)c(F)c2)[C@@H]2CC[C@H]1N2c1nnn[nH]1` (single isomer, unassigned) [49D*] returned an IC50 at human NLRP3 [2] (Table B, activity class) of 50 to 100 µM.
The compound `C[C@H]1C[C@@H](NC(=O)N(C)c2ccc(OC(F)(F)F)c(F)c2)[C@@H]2CC[C@H]1N2c1nnn[nH]1` (single isomer, unassigned) [51C*] registered an IC50 at human NLRP3 [2] (Table B, activity class) above 100 µM.
Same read-out and setting: the value for `C[C@@H]1C[C@H](NC(=O)N(C)c2ccc(C(F)F)cc2F)[C@H]2CC[C@@H]1N2c1nnn[nH]1` (single isomer, unassigned) [55B*] was above 100 µM.

As a reminder, the IC50 is the concentration at which inhibition is half-maximal.
